Measurements reported in PubChem BioAssay (NCI).
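Where inhibition never reached the appropriate level, the endpoint shown equals the highest concentration tested. Otherwise, values were interpolated linearly from a five-concentration, 48-hour dose response in 96-well plates. TGI marks complete inhibition of growth.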 Where a SMILES comes first, the peptide text is derived from it. The star is where a group is joined. Cbz = O=C(OCc1ccccc1)*

Key:
Assay in all cases: NCI-60 cell line screen, 48 h
NCI-H226 lung = test system: NCI-H226 lung
RPMI-8226 leukemia = test system: RPMI-8226 leukemia
SK-MEL-5 melanoma = test system: SK-MEL-5 melanoma
T-47D breast = test system: T-47D breast
UO-31 renal = test system: UO-31 renal
EKVX NSCLC = test system: EKVX NSCLC
KM12 colon = test system: KM12 colon
NCI/ADR-RES ovarian = test system: NCI/ADR-RES ovarian
SF-268 CNS = test system: SF-268 CNS
SF-539 CNS = test system: SF-539 CNS

| SMILES | TGI (NCI-H226 lung) [µM] | TGI (RPMI-8226 leukemia) [µM] | TGI (SK-MEL-5 melanoma) [µM] | TGI (T-47D breast) [µM] | TGI (UO-31 renal) [µM] | TGI (EKVX NSCLC) [µM] | TGI (KM12 colon) [µM] | TGI (NCI/ADR-RES ovarian) [µM] | TGI (SF-268 CNS) [µM] | TGI (SF-539 CNS) [µM] |
| --- | --- | --- | --- | --- | --- | --- | --- | --- | --- | --- |
| CCOC(=O)CCC(NC(=O)C(CC(=O)OC)NC(=O)OCc1ccccc1)C(=O)NC(CC(=O)OC)C(=O)NC(CCC(=O)OCC)C(=O)NC(CC(=O)OC)C(=O)NC(CCC(=O)OCC)C(=O)NC(CC(=O)OCC)C(=O)OCC (centres undefined) (Cbz-D(OMe)E(OEt)D(OMe)E(OEt)D(OMe)E(OEt)D(OEt)-OEt; configuration not given here) | > 100 | > 100 | > 100 | > 100 | > 100 |  |  |  |  |  |
| CC(Nc1cccc(Cl)c1)c1ccncc1 (centres undefined) | > 100 | > 100 | > 100 | > 100 | > 100 | > 100 | > 100 | > 100 | > 100 | > 100 |
| C[N+](C)(N)Cc1nc(-c2ccc(Cl)cc2)no1 | > 100 | > 100 | > 100 | > 100 |  | > 100 | > 100 | > 100 |  | > 100 |
| COc1ccc(OC)c([N+](=O)[O-])c1-c1nc2sc(Cl)cn2c1/C=N/N=C(N)N | 44.1 | > 100 | 32.3 | 42.7 | 33.1 | 57 | 46.3 | > 100 | 64.8 | 53.5 |
| O=C(Nc1ccc(Cl)cc1)c1cc(S(=O)(=O)Nc2nc3ncccc3[nH]2)c(SSc2cc(Cl)c(C(=O)Nc3ccc(Cl)cc3)cc2S(=O)(=O)Nc2nc3ncccc3[nH]2)cc1Cl | > 100 | > 100 | > 100 | > 100 | > 100 | > 100 | > 100 | > 100 | > 100 | > 100 |
| Cc1cnoc1/N=C1\C=C(Nc2oncc2C)C(=O)c2ccccc21 | > 100 | > 100 | > 100 |  | > 100 | > 100 | > 100 |  | > 100 | > 100 |
| CC(C)NC1CCCCC2c3ccccc3C12O (centres undefined) | > 100 | > 100 | > 100 |  | > 100 | > 100 | > 100 |  | > 100 |  |
| Cc1cc2c3c(c1)S(=O)(=O)c1cc(Cl)ccc1N3CCC2 | > 100 |  | > 100 |  | > 100 | > 100 | > 100 | > 100 | > 100 | > 100 |
| COc1ccc(/C=C2\C(=O)N(C(=O)c3ccc(NC(C)=O)cc3)N=C2C)cc1OC | > 100 | > 100 | > 100 |  | > 100 | > 100 | > 100 |  | > 100 | > 100 |
| O=[N+]([O-])C(/C(Cl)=C(/Cl)N1CCOCC1)=C1\Nc2ccccc2O1 | > 100 | > 100 |  | > 100 | > 100 | > 100 | > 100 | > 100 | > 100 | > 100 |
| CCN(CC)C1=Nc2ccccc2-n2ccnc2C1 | > 100 |  | > 100 | > 100 | > 100 | > 100 | > 100 | > 100 | > 100 | > 100 |
| CN1CCN(c2n[nH]c(=O)c3c2nnn3Cc2ccccc2)CC1 |  | > 100 | > 100 |  | > 100 | > 100 | > 100 | > 100 | > 100 |  |
| Cc1cccc(-c2cc(=O)c3cccnc3[nH]2)c1 | > 100 | > 100 | 52.3 |  | > 100 | 87.2 | 82 | > 100 | > 100 | > 100 |
| CCOC(=O)c1ccc(-c2onc(C)c2Br)[nH]1 |  | > 100 | > 100 | > 100 | > 100 | > 100 | > 100 | > 100 | > 100 |  |
| COc1cc(OC)c(-n2[nH]c(=O)n(C)c2=O)c(OC)c1 | > 100 | > 100 |  | > 100 | > 100 | > 100 | > 100 | > 100 | > 100 | > 100 |
| CCCSc1ccc2[nH]c(N3C(=O)/C(=C/c4ccc(O)c(OC)c4)N=C3c3ccccc3)cc2c1 |  | 34.3 | 16.1 | > 100 | > 100 | 67.4 | > 100 | > 100 | > 100 | 49 |
| O=c1[nH]c2c(C(F)(F)F)c(Cl)c(-c3ccccc3)nc2o1 | > 100 |  | > 100 | 90.9 | > 100 | 41.6 | > 100 | 67.2 | > 100 |  |
| O=C1CC(Nc2ccccc2)c2c(Cl)sc(Cl)c21 (centres undefined) | 24 | 0.0461 | 16.8 | > 20 | 2.57 | 3.4 | 1.94 | 6.44 |  | 2.24 |
| CN(C(=O)Cc1cc(Cl)c(Cl)cc1NC(=O)CCCN)[C@H]1CCCC[C@@H]1N1CCCC1 | > 100 | > 100 | 29.9 | > 100 | > 100 | > 100 | 36.7 | > 100 | 30.6 |  |
| O=C(CSc1nc2ccccc2c(=O)n1-c1ccccc1)N=Nc1c(O)[nH]c2ccc(Br)cc12 |  | > 38 | > 20.6 | 28.6 | 6.64 | 9.83 | 14 | 22.9 | > 38.3 | 6.13 |
| NC(=O)N/N=C(\Cc1cc(=O)oc2cc(O)ccc12)C(=O)Nc1ccccc1C(N)=O | > 100 |  | > 100 |  | > 100 | > 100 | > 100 | > 100 | > 100 | > 100 |
| O=c1[nH]nc(-c2ccc3ccccc3c2)[nH]1 | > 100 | > 100 |  | > 100 | > 100 | 64.4 | > 100 | > 100 | > 100 | > 100 |
| OC1C2CN3CCN(C2)CC1(c1ccccc1)C3 (centres undefined) | > 100 | > 100 | > 100 |  | > 100 | > 100 | > 100 | > 100 | > 100 | > 100 |
| NCC(=O)N[C@H]1c2ccsc2/C(=N/O)[C@H]1O | > 100 |  | > 100 | > 100 | > 100 | > 100 |  | > 100 |  | > 100 |

| SMILES | TGI (NCI-H226 lung) [µM] | TGI (RPMI-8226 leukemia) [µM] | TGI (SK-MEL-5 melanoma) [µM] | TGI (T-47D breast) [µM] | TGI (UO-31 renal) [µM] | TGI (EKVX NSCLC) [µM] | TGI (KM12 colon) [µM] | TGI (NCI/ADR-RES ovarian) [µM] | TGI (SF-268 CNS) [µM] | TGI (SF-539 CNS) [µM] |
| --- | --- | --- | --- | --- | --- | --- | --- | --- | --- | --- |
| C#CCOC(=O)C=[N+]=[N-] | > 10 | > 10 |  | > 10 | > 10 | > 10 | > 10 |  | > 10 | > 10 |
| CCN1CC2=C(OC(N)=C(C#N)C2c2ccc(Cl)cc2)/C(=C/c2ccc(Cl)cc2)C1 (centres undefined) | 94.3 | 85.1 | > 100 |  | > 100 | > 100 | > 100 | > 100 | 49.6 |  |
| OC1CCN2Cc3ccccc3N=C12 (centres undefined) | > 100 | > 100 | > 100 |  | > 100 | > 100 | > 100 | > 100 | > 100 | > 100 |
| CN(C)c1ccc(-c2c(C#N)c(-c3ccccc3)n(NS(=O)(=O)c3ccccc3)c(=O)c2C#N)cc1 | > 100 | 48.6 | 46.8 |  |  | > 100 | > 100 | > 100 | > 100 | > 100 |
| CCOC(=O)c1ccc(N2C(=O)/C(=C/c3ccc(N(CCC#N)CCC#N)cc3)N=C2c2cc([N+](=O)[O-])ccc2Cl)cc1 | > 100 | > 100 | > 100 |  | > 100 | > 100 | > 100 |  | > 100 | > 100 |
| CC(C)(C)c1ccc(O)c(C(O)c2ccccn2)c1 (centres undefined) | > 100 | > 100 |  | 80.9 | > 100 | > 100 | > 100 | > 100 | > 100 | > 100 |
| CC(C)C(Sc1nc(-c2ccccc2)c(-c2ccccc2)[nH]1)C(=O)N/N=C/c1ccc(Cl)cc1 (centres undefined) | 41.5 | 65.4 | 30.5 |  | 47.8 | 67.6 | 44.7 |  | 57.6 | 36.4 |
| Cc1cccc(C)c1NC(=S)N/C=C(\C#N)C(N)=O | > 100 | > 100 | > 100 |  | > 100 | > 100 | > 100 | > 100 | > 100 | > 100 |
| Cc1ccc2[nH]c3c(c2c1)C1CCC(C(C)(C)C)CC1C1C(=O)N(c2ccc(Oc4ccccc4)cc2)C(=O)C31 (centres undefined) | > 86.9 | 40.5 | > 100 | > 68.2 | > 100 | > 100 | > 100 | > 100 | 41.6 |  |
| O=C1c2cccnc2S(=O)(=O)N1c1ccc(Br)cc1 | > 100 | > 100 | > 100 | > 100 | > 100 | > 100 | > 100 | > 100 | > 100 |  |
| CCOC(=O)c1nc2ccccc2nc1Nc1cc(OC)c(OC)c(OC)c1 |  | > 100 | > 100 | > 100 | > 100 | > 100 | > 100 | > 100 | > 100 | > 100 |
| COC(=O)C12C(=O)CC3CCC1C32C(=O)OC (centres undefined) | > 100 | > 100 | > 100 |  | > 100 | > 100 | > 100 | > 100 | > 100 | > 100 |
| COP(=O)(OC)[C@@](O)(c1ccccc1)[C@@H](O)[C@H](O)c1ccccc1 | > 100 |  | > 100 | > 100 | > 100 | > 100 | > 100 | > 100 | > 100 | > 100 |
| Cn1c2ccccc2n2c(=O)c(-c3ccc(Cl)cc3)nnc12 | > 100 |  | > 100 | > 100 | > 100 | > 100 | > 100 | > 100 | > 100 | > 100 |
| CCOP(=O)(OCC)/C(C#N)=C/c1nc[nH]c1C | > 100 | > 100 | > 100 |  | > 100 | > 100 | > 100 | > 100 | > 100 | > 100 |
| C[C@]12C(=O)OC[C@H](c3ccccc3)N1C(=O)N(Cc1ccccc1)[C@@H]2CO | > 100 |  | > 100 |  | > 100 | > 100 | > 100 | > 100 | > 100 | > 100 |
| COC1CCC(O)C(CO)O1 (centres undefined) |  |  | > 100 |  | > 100 | > 100 | > 100 |  |  | > 100 |
| Cc1cc(C)c2c(-c3ccccc3)cc(=O)[nH]c2c1 | > 100 | > 100 | > 100 | > 100 |  | > 100 | > 100 | > 100 | > 100 |  |
| CCOc1cc2c(cc1OC)c[n+](C)c1c3cc(OC)c(OC)cc3ccc21 | 99 | > 100 | > 100 |  | > 100 | > 100 | > 100 |  | > 100 | > 100 |
| O=C(CN1CCCCC1)c1ccc2[nH]c(=O)oc2c1 | > 100 | > 100 | > 100 |  |  | > 100 | > 100 | > 100 | > 100 | > 100 |
| COC(=O)C1=C(C(=O)OC)C23CC4CCC2(C(=O)C1O3)C4(C)C (centres undefined) | > 100 | > 100 | > 100 |  | > 100 |  | > 100 |  | > 100 | > 100 |
| CCCCCCCCCCCCCOCCOCCOCCCCC(O)CCCCCCCCCC1=C[C@H](C)OC1=O (some centres undefined) | 38 | 35.9 | 30.2 | > 100 | 44.4 |  | > 100 | 41.4 | 82.2 | 45.3 |
| CCCCOC(=O)Nc1ccc(S(=O)(=O)Nc2c(Cl)cccc2Cl)cc1 |  | 41.5 | 28 | 83.8 | 61.5 | 71.6 | 99.4 | 65.8 | > 100 | 80 |
